Test results reported in patent US8603993B2, “Compositions and methods modulating MG29 for the treatment of diabetes” (University of Medicine and Dentistry of New Jersey, priority 2009, dated 2013).
Entries after “also recorded” stand apart in the source; their conditions may differ. Where two headings read alike, the source gives them in different places. No end group written: not given here.

Assays:
[1] = tested on: extensor digitorum longus (EDL) of non-fasted db/db mice; assay: Ex vivo contractility assay, force recovery after fatigue; parameters: species or system mouse
Protocol: Application of GLP1 can improve contractility in skeletal muscle from diabetic mice. […] This leads us to test whether the increased Ca sparks activity can be translated as increased muscle force as measured by ex vivo contractility assays. The extensor digitorum longus (EDL) of non-fasted db/db mice is mounted to a force transducer and electrically stimulated following the protocol shown in FIG. 11. A 10 fold higher dose of GLP1 (100 nM) used in the Ca^2+ spark experiments is applied to the contractility study, to take into account the increased mass of the anatomical muscle over the isolated muscle fiber. Muscles were tested for their maximum force (Tmax) produced at various frequencies and then fatigued using rapid pulses of an electric field, which was then followed by another measurement of Tmax. Following 1 hour of GLP1 application, this stimulation protocol was repeated on the same muscles (FIG. 11a). Calculating the ratio of Tmax before and after GLP1 application will show how the application of GLP1 can influence the recovery of muscle function following fatigue.
Intact EDL and soleus muscle isolation. Intact EDL and soleus muscles were dissected from mice and maintained in Isotonic Tyrode solution supplemented with 12 mM glucose, continuously bubbled with 100% O2. […] Muscles were mounted vertically on a glass-stimulating apparatus (Radnoti) with platinum electrodes and attached to a movable isometric force transducer and to a stationary anchor, which allowed muscles to be stretched until both maximal forces for a given frequency and the frequency producing Tmax were obtained.
Force measurements during fatigue. A Powerlab computer-interface program (ADInstruments) was used to control the electrical stimulation protocols and to record, digitize and store force output data. […] Forces were normalized into gram after calibration and all data were analyzed by Origin software (OriginLab). […]
(§1) Solutions. […] 5 CaCl2, 2 MgCl2 and 10 HEPES (ph 7.2), with measured osmolality of 290 mOsm. […]

rat's soleus muscle = conditions: rat soleus incubated with GLP1; cited from earlier work
db/db muscle fibers = assay: Osmotic shock-induced Ca2+ sparks in isolated FDB muscle fibers (confocal imaging); assay type: cell-based, mouse
Protocol: (§2) The Ca spark response in skeletal muscle is compromised in mg29−/− and diabetic muscle. […] Considering that we see a similar functional phenotype with glucose handling between the mg29−/− animal and diabetic patients, we tested if the we would see similar defects in Ca signaling as well. Ca spark measurement is performed in 13-16 weeks old control wild type, type I diabetic mice (akita) or type II diabetic mice (db/db). Non-fasted serum glucose levels are recorded from blood samples taken from the tail vein immediately before sacrificing the mice. Following an established protocol in our laboratory, we measured Ca sparks in muscle fibers isolated from the flexor digitorum brevis (FDB). We observed no increase in the frequency of spontaneous resting Ca sparks in db/db muscle fibers (data not shown). […] The degree that the spark frequency decreased could be directly correlated with the blood glucose level of the animal, with more diabetic animals displaying less sparks than those animals with lower blood glucose levels (FIG. 9b).
(§3) FDB skeletal muscle fiber isolation. Mice were sacrificed by cervical dislocation and hind limbs were surgically removed and placed into Isotonic Tyrode with measured osmolarity of 290 mOsm. Flexor Digitorum Brevis (FDB) muscles were excised and transferred into Tyrode supplemented with 0.2% type I collagenase (Sigma C-0310), for 90 minutes at 37° C. Muscle fibers were gently dissociated by several passages through a small diameter pipette. Isolated FDB muscle fibers were plated onto a ΔTC glass-bottomed dishes (Bioptech Inc.) in 1 ml of Tyrode buffer.
(§4) Confocal Ca^2+ imaging and spark analysis. Following individual muscle fiber isolation, the fibers were plated onto a dish containing isotonic tyrode solution (290 mOsm). 10 μM Fluo4-AM, a membrane permeable cytosolic Ca^2+ indicator dye is loaded onto the dish and left incubated for 60 minutes in room temperature along with different drug treatment. Replacing 50% of the dish volume with isotonic Tyrode for three times washed excess dye from the dish. Using brightfield confocal microscopy, fibers were then be screened by light microscopy for intact sarcolemmal membranes and regular striation patterns. Muscle fibers that fulfill these criteria were bathed in the isotonic solution, a physiological resting condition. Measurement of SR Ca^2+ release was performed on a BioRad Radiance-2100 confocal microscope equipped with Argon laser ([…]), Helium-Neon laser (632 nm), and a 40×, 1.3 NA oil immersion objective. An acquisition rate of 2 ms perline was used for line scan imaging, while serial x-y images were acquired at 3.08 s per frame (512×512 pixels). Osmotic shock to disrupt the juxtaposition of membrane coupling was applied to analyze whether knockdown of Bin1 alters the Ca^2+ sparks activity. Initially, fiber was perfused with isotonic solution for 30 seconds prior to applying hypotonic Tyrode solution (170 mOsm) for 1 minute that induces membrane swelling. […] For each animal, 3-4 fibers were treated by osmotic shock, and from each fiber 2 images (comprised of 30000 2 ms linescans of 512 pixels) were recorded. Image analysis and normalization of linescan intensities to the calculated resting fluorescence (F0) and determination of the amplitude and duration of individual events was performed using custom routines for IDL software. […]
as §1

WT muscle fibers = assay: as above; assay type: cell-based, mouse; conditions: GLP1 treatment
Protocol: as §2, §3, §4, §1

[2] = patients treated with Januvia; cited from earlier work
[3] = Insulin challenge, blood glucose after bolus IP injection; assay type: in vivo, mouse; conditions: IP injection of insulin
Protocol: FIG. 6. Mice null for MG29 (mg29−/−) display compromised response to insulin challenge. Fasting blood glucose levels were measured in mice following a bolus IP injection of insulin at time 0 on chart. […] Mean±SEM is shown. ANOVA is used for analysis with **: P<0.01;***P<0.001.

Molecule: GLP1 7-36 Amide (HAEGTFTSDVSSYLEGQAAKEFIAWLVKGR-NH2; UniProt P01275 98-127, looked up) [Glucagon like peptide 1 (GLP1) of pro-glucagon origin is a type of incretin hormone; obtained from Sigma]
- twitch ratio ([1]; after GLP1 treatment, 100 nM): no significant change
- Tmax recovery ratio (maximal force after fatigue to before fatigue) ([1]; db/db EDL, 100 nM GLP1 for 1 h): back to the levels seen in the WT muscles; also recorded: improves muscle force
- force frequency relationship ([1]; db/db muscle, 100 nM GLP1): did not significantly alter
- PKB activity (rat's soleus muscle): increased
- glycogen synthase activity (rat's soleus muscle): increased
- Ca2+ spark events / frequency (db/db muscle fibers; db/db FDB fibers after osmotic shock, GLP1 10 nM for 1 hour): significantly improves; also recorded: can be reversed; also recorded: significant increased
- peripheral subsarcolemmal distribution of Ca2+ sparks (db/db muscle fibers; db/db fibers, GLP1 treatment): does not alter
- GLP1 effect on Ca2+ sparks by blood glucose group (db/db muscle fibers; db/db mice, high blood glucose >330 mg/dL vs lower blood glucose <260 mg/dL): maximum activity on db/db mice that exhibit high hyperglycemia condition
- peripheral subsarcolemmal distribution of Ca2+ sparks (WT muscle fibers; WT fibers): does not alter
- Ca2+ spark frequency (WT muscle fibers; WT muscle): minimal increases

Molecule: N[C@@H](CC(=O)N1CCn2c(nnc2C(F)(F)F)C1)Cc1cc(F)c(F)cc1F [Januvia, Sitagliptin]
- blood glucose [2]: normalization

Molecule: insulin
- blood glucose level ([3]; mg29-/- mice): much less effect
- blood glucose ([3]; wild type control animals): significant decrease
